Laboratory results from patent US20200147058A1, “KRAS INHIBITOR FOR USE IN TREATING CANCER” (Friedrich-Alexander-Universitat Erlangen-Numberg, priority 2016, published 2020).

How the values were obtained:
[1] = tested on: murine hepatoma cell line Hepa129; test: viable cells counted by microscopy; format: cell-based; conditions: 24 hours
Procedure: (§1) FIGS. 12A through 12C depict Murine Hepatoma Cells (Hepta129) Sensitive for Small Molecule KRAS Inhibition in vitro and in vivo. […] is exemplary images (4-fold) depicting murine Hepatoma Cells (Hepa129) treated for 24 hours with Deltarasin (DR) and/or Sorafenib (SF) using different concentration of inhibitors.

[2] = tested on: 451Lu-R and SkMel28-R cells; test: long-term treatment of PLX-resistant cell lines, surviving tumor cells; format: cell-based, human; conditions: 8 μM DR, 28 days
PLC = conditions: DR doses
[3] = tested on: pancreatic adenocarcinoma cells; conditions: Zimmermann et al., 2013; cited from earlier work
melanoma cells = test: lactate dehydrogenase (LDH) quantification in cell supernatants after low dose DR; format: cell-based, human; conditions: low dose DR (2 μM), 24 hours
Mel Juso cells [4] = test: real-time cell proliferation (slope of cell index); format: cell-based, human; conditions: different concentrations of DR vs DMSO
Text: (§2) FIGS. 4A through 4H depict that small Molecule KRAS Inhibition Reduces Proliferation and Induces Apoptosis in Melanoma. FIGS. 4A and 4B show proliferation (slope of cell index) of Mel Juso (FIG. 4A) and Mel Im (FIG. 4B) cells treated with DMSO and different concentrations of the KRAS small molecule inhibitor Deltarasin (DR). The cell index as dimensionless parameter for cell proliferative ability was used to determine the half maximal inhibitory concentration (IC50, small graphs) of DR. […] FIG. 4D illustrates exemplary images of different melanoma cell lines (Mel Im, Mel Juso and Mel Ei) treated with 5 μM DR or 5 μM DMSO, respectively, for 24 hours. FIGS. 4E and 4F show images of fibroblast cell lines derived from two different donors (F1, F2) and melanocytes (NHEM) treated DR (20 μM, 48 hours) or DMSO (FIG. 4E), and lactate dehydrogenase (LDH) quantification (FIG. 4F) in cell supernatants (optic density, OD) of NHEM after treatment with low dose DMSO, DR (5 μM), and DR (10 μM), respectively.

Mel Im cells [5] = test: real-time cell proliferation (slope of cell index); format: cell-based, human; conditions: different concentrations of DR vs DMSO
Text: as §2

Mel Juso cells [6] = test: three-dimensional, anchorage-independent colony-forming assay; format: cell-based, human; conditions: Mel Juso (BRAFi primary resistant); DR 5 μM, PLX 10 μM, alone or combined
Text: FIGS. 5A through 5D show time-dependent measurement of colony diameters (exemplary data in top panels) in three-dimensional, anchorage-independent “colony-forming” assays (FIGS. 5A and 5B: Mel Im, FIGS. 5C and 5D: Mel Juso). Exemplary Images (middle) and corresponding quantification of colony diameters (bottom panels, summarized data of n=3 experiments at day 19 after seeding) are also depicted. […] Effects on i) colony formation (FIGS. 5A and 5C, treatment at day 1) and ii) proliferation of pre-formed colonies (FIGS. 5B and 5D, treatment at day 7 and 13) were analyzed. […] Cells were treated for 5 hours with DMSO, 5 μM Deltarasin (DR), 10 μM PLX, or a combination of 10 μM PLX and 5 μM DR. […] (FIG. 5H) Mel Im and Mel Juso were transfected with control si-RNA (si-CTR) or with si-KRAS (si-KR). Two subgroups (blue and red) were additionally treated with 10 μM PLX (Vemurafenib) for 24 hours, with subsequent flow cytometric quantification of tumor cell apoptosis according to FIG. 5G.

[7] = tested on: normal human epidermal melanocytes (NHEM); test: toxicity in non-tumor cells (images, LDH); format: cell-based; conditions: doses up to 20 μM
Text: as §2

[8] = tested on: murine hepatoma cell line Hepa129; test: apoptosis by FACS analysis; format: cell-based; conditions: 24 hours
Procedure: as §1

HCC tumor cells = test: tumor cell toxicity in HCC; format: cell-based, human; conditions: higher doses of DR (>8 μM)
[9] = tested on: murine hepatoma cell line Hepa129; test: cell cycle FACS analysis (propidium iodide staining); format: cell-based; conditions: 5-6 hours of treatment
Text: FIG. 13 depicts Deltarasin Inducing G2/M-Cell Cycle Arrest in Murine HCC Cells.

Htz19 melanoma cells = test: three-dimensional colony formation assay; format: cell-based, human; conditions: Htz19 (BRAFi primary sensitive); DR 5 μM, PLX 10 μM, alone or combined
[10] = tested on: human fibroblast cell lines; test: toxicity in non-tumor cells (images); format: cell-based; conditions: doses up to 20 μM, 48 hours
Text: as §2

HepG2 hepatoma cells = test: Annexin V / PI staining with FACS analysis of apoptosis; format: cell-based, human; conditions: 8 μM
Mel Im cells [11] = test: three-dimensional, anchorage-independent colony-forming assay; format: cell-based, human; conditions: Mel Im (BRAFi primary sensitive); DR 5 μM, PLX 10 μM, alone or combined
HCC cells = test: anchorage-dependent tumor cell growth; format: cell-based, human; conditions: low doses (6 μM)
[12] = tested on: melanoma cell lines (Mel Im, Mel Juso and Mel Ei); test: toxicity (images) in melanoma cell lines; format: cell-based, human; conditions: 5 μM, 24 hours
Text: as §2

c1ccc(Cn2c(-c3ccc(OC[C@H](C4CCNCC4)n4c(-c5ccccc5)nc5ccccc54)cc3)nc3ccccc32)cc1 [Deltarasin, (S)-1-Benzyl-2-(4-(2-(2-phenyl-1H-benzo[d]imidazol-1-yl)-2-(piperidin-4-yl)ethoxy)phenyl)-1H-benzo[d]imidazole]
tumor cell proliferation (viable cells) [1]: marked effects
emergence of surviving tumor cells (cross-resistance to DR) [2]: completely abolish the emergence of surviving tumor cells
inhibition of proliferation (PLC): strong dose-dependent inhibition of proliferation
proliferation of pancreatic adenocarcinoma cells [3]: reduce proliferation
lactate dehydrogenase (LDH) amounts in cell supernatants (melanoma cells): sufficient to increase lactate dehydrogenase (LDH) amounts
inhibition of proliferation (slope of cell index) (Mel Juso cells [4]): dose-dependent inhibition of proliferation
inhibition of proliferation (slope of cell index) (Mel Im cells [5]): dose-dependent inhibition of proliferation
three-dimensional colony formation and colony proliferation (Mel Juso cells [6]): markedly inhibited
toxic effects in normal human epidermal melanocytes (NHEM) [7]: no toxic effects
apoptosis [8]: marked effects
tumor cell toxicity (HCC tumor cells): marked tumor cell toxicity
G2/M-Cell Cycle Arrest [9]: dose-dependently induces
SubG1 fractions [9]: increased
three-dimensional colony formation and proliferation of pre-formed colonies (Htz19 melanoma cells): similarly effective as PLX
toxic effects in human fibroblast cell lines [10]: no toxic effects
induction of apoptosis (FACS) (HepG2 hepatoma cells): marked dose-dependent induction of apoptosis
three-dimensional colony formation and proliferation of pre-formed colonies (Mel Im cells [11]): similarly effective as PLX
anchorage-dependent tumor cell growth (HCC cells): suppressed
toxicity in different melanoma cell lines [12]: marked toxicity
